Results as given in article PMC10632401, “Cell-free biosynthesis combined with deep learning accelerates de novo-development of antimicrobial peptides” (Nature Communications, 2023).
≈ marks a conversion by molar mass, not a printed value. Residues, ends and D or L forms follow the SMILES beside them. No end group written: not given here.

Assays:
P. aeruginosa DSM 1117 = settings: DSM 1117, 20 h
[1] = tested on: E. faecium (isolate from the gut of the cow); settings: 20 h
[2] = tested on: A. baumannii (isolate from the human abdominal wall); settings: 20 h
in vitro = settings: human
B. subtilis PY79 = settings: PY79, 20 h
K. pneumoniae DSM 30104 = settings: DSM 30104, 20 h
E. coli MG1655 = settings: MG1655, 20 h

| Molecule | MIC P. aeruginosa (P. aeruginosa DSM 1117) [µM] | MIC E. faecium [1] [µM] | MIC A. baumannii [2] [µM] | CC50 at 24 h (in vitro) [µM] | B. subtilis MIC (B. subtilis PY79) [µM] | MIC K. pneumoniae (K. pneumoniae DSM 30104) [µM] | E. coli MIC (E. coli MG1655) [µM] | CC50 (in vitro) [µM] |
| --- | --- | --- | --- | --- | --- | --- | --- | --- |
| CC[C@H](C)[C@H](NC(=O)CNC(=O)[C@@H](N)CCSC)C(=O)NCC(=O)N[C@@H](CCCCN)C(=O)N[C@@H](Cc1ccccc1)C(=O)N[C@@H](CCC(N)=O)C(=O)N[C@@H](CCCCN)C(=O)N[C@@H](CCSC)C(=O)N[C@@H](CCCNC(=N)N)C(=O)N[C@@H](Cc1ccccc1)C(=O)N[C@H](C(=O)NCC(=O)N[C@@H](C)C(=O)N[C@H](C(=O)N[C@@H](CCCNC(=N)N)C(=O)N[C@@H](C)C(=O)N[C@@H](CO)C(=O)N[C@@H](CCCCN)C(=O)NCC(=O)N[C@H](C(=O)N[C@@H](C)C(=O)N[C@@H](CCCCN)C(=O)NCC(=O)N[C@@H](CC(C)C)C(=O)N[C@@H](CC(C)C)C(=O)N[C@@H](CCCNC(=N)N)C(=O)N[C@H](C(=O)N[C@@H](C)C(=O)N[C@@H](C)C(=O)N[C@H](C(=O)N[C@@H](CCCNC(=N)N)C(=O)N[C@H](C(=O)NCC(=O)N[C@@H](CCCNC(=N)N)C(=O)N[C@@H](CCCNC(=N)N)C(=O)N[C@@H](C)C(=O)N[C@@H](CC(C)C)C(=O)N[C@H](C(=O)N[C@H](C(N)=O)[C@@H](C)O)[C@@H](C)O)[C@@H](C)O)[C@@H](C)CC)[C@@H](C)CC)C(C)C)[C@@H](C)CC)[C@@H](C)CC [AMP #21] (H-MGIGKFQKMRFIGAIRASKGVAKGLLRIAAIRTGRRALTT-NH2) | 12.5 (≈ 53.9 µg/mL) | 6.3 (≈ 27.2 µg/mL) | 0.8 (≈ 3.45 µg/mL) | > 250 | 0.5 | 25.0 (≈ 108 µg/mL) | 10.4 |  |
| CC[C@H](C)[C@H](NC(=O)[C@H](CO)NC(=O)[C@H](CO)NC(=O)[C@H](CO)NC(=O)[C@H](CCCNC(=N)N)NC(=O)[C@@H](NC(=O)[C@H](CO)NC(=O)[C@@H](N)CCSC)[C@@H](C)O)C(=O)N[C@@H](CCCNC(=N)N)C(=O)N[C@@H](CCCNC(=N)N)C(=O)N[C@@H](CC(C)C)C(=O)N[C@H](C(=O)N[C@@H](CCC(=O)O)C(=O)N[C@@H](C)C(=O)N[C@H](C(=O)N[C@@H](CCCNC(=N)N)C(=O)N[C@H](C(=O)N[C@@H](CCCNC(=N)N)C(=O)N[C@@H](Cc1ccccc1)C(=O)N[C@@H](CCCNC(=N)N)C(=O)N[C@@H](C)C(=O)N[C@@H](C)C(=O)N[C@@H](CC(C)C)C(=O)N[C@@H](CCCNC(=N)N)C(=O)N[C@H](C(=O)N[C@H](C(=O)N[C@@H](CC(C)C)C(=O)N[C@@H](Cc1ccccc1)C(=O)N[C@@H](Cc1ccccc1)C(=O)N[C@@H](C)C(=O)N[C@@H](CC(C)C)C(=O)N[C@@H](CCCNC(=N)N)C(=O)N[C@H](C(=O)N[C@H](C(=O)N[C@@H](CCCCN)C(=O)N[C@@H](CCCNC(=N)N)C(=O)N[C@@H](CCCNC(=N)N)C(=O)N1CCC[C@H]1C(=O)N[C@@H](CCCNC(=N)N)C(=O)N[C@@H](CCCNC(=N)N)C(N)=O)[C@@H](C)O)[C@@H](C)O)C(C)C)[C@@H](C)O)[C@@H](C)O)C(C)C)C(C)C [AMP #23] (H-MSTRSSSIRRLVEAVRTRFRAALRTVLFFALRTTKRRPRR-NH2) |  |  |  |  | 1.6 |  | 20.8 | 79.1 |
| CC[C@H](C)[C@H](NC(=O)[C@H](CCCNC(=N)N)NC(=O)[C@H](CCCNC(=N)N)NC(=O)[C@@H](NC(=O)[C@H](C)NC(=O)[C@H](CCC(=O)O)NC(=O)[C@H](CCCCN)NC(=O)[C@H](CCCNC(=N)N)NC(=O)[C@H](CO)NC(=O)[C@H](CCCNC(=N)N)NC(=O)[C@H](CC(C)C)NC(=O)[C@@H](NC(=O)[C@H](CC(N)=O)NC(=O)[C@H](CCCNC(=N)N)NC(=O)[C@@H](NC(=O)[C@H](CCCCN)NC(=O)[C@H](CCSC)NC(=O)[C@@H](N)CCSC)[C@@H](C)CC)[C@@H](C)O)C(C)C)C(=O)N[C@@H](Cc1ccccc1)C(=O)N[C@@H](CO)C(=O)N[C@@H](CC(C)C)C(=O)N[C@@H](CCCNC(=N)N)C(=O)N[C@@H](CCCNC(=N)N)C(=O)N[C@@H](CCCNC(=N)N)C(=O)N[C@@H](CO)C(=O)N[C@H](C(=O)N[C@@H](Cc1ccccc1)C(=O)N[C@H](C(=O)N[C@@H](CCC(=O)O)C(=O)N[C@@H](CCSC)C(=O)N[C@@H](C)C(=O)N[C@@H](CCCNC(=N)N)C(=O)N[C@@H](C)C(=O)N[C@@H](Cc1ccccc1)C(=O)N[C@@H](CCCNC(=N)N)C(=O)N[C@@H](CCCNC(=N)N)C(=O)N[C@@H](Cc1ccccc1)C(=O)N[C@@H](CCCCN)C(=O)N[C@@H](C)C(=O)N[C@@H](CCCNC(=N)N)C(N)=O)[C@@H](C)O)C(C)C [AMP #28] (H-MMKIRNTLRSRKEAVRRIFSLRRRSVFTEMARAFRRFKAR-NH2) | 25.0 (≈ 126 µg/mL) | 3.1 (≈ 15.6 µg/mL) | 1.6 (≈ 8.05 µg/mL) | 145 | 0.4 | 12.5 (≈ 62.9 µg/mL) | 25.0 |  |
| H-MWFDRKKFFWPGVCLFLLFFPKRFYKKGPEKVFSFRKKYKFARKCKCKL-NH2 (cysteines drawn unpaired) [AMP #12] | 25.0 | 12.5 |  |  |  | 25.0 |  |  |
| MAIRIIGRLARVRARVVARVRSRLLADDPPEDLLRVARRRKGRRWLFLS-NH2 [AMP #24] |  | 6.3 |  | 91.7 | 1.6 |  | 25.0 |  |
| MGWWFPPKTGNGAGKAFKKAAAAKWGGLFLKAAWFANKGEWGGGFPKGY-NH2 [AMP #9] |  | 6.3 |  | 146 | 3.1 | 25.0 | 25.0 |  |
| MKKKKKGILKQNNKKKKYTLFNRMVVFLFLGFIMIIFVQKYKKVIYHK-NH2 [AMP #29] |  |  |  | > 250 | 6.3 |  | 12.5 |  |
| MKLRRRLRTRMVALLVLGVLFLLMLFFIIFLRRMLMRRFRA-NH2 [AMP #26] |  |  |  |  | 37.5 |  | 100.0 | > 250 |
| MLFGSRAKKYGKEAKQEKSFQYPKSSFVACKKKWKRSKHFFKTFKKKVS-NH2 [AMP #1] |  |  |  | 113 | 0.8 |  | > 100 |  |
| MNNRGPLGRRFKARRKWKKFVAGKMKKKRKRFKGFKKKGGFTPFVKKFV-NH2 [AMP #3] |  | 1.6 | 6.3 | 68 | 0.8 |  | 12.5 |  |
| MRNFFKKTRLKYKGKKELIKKSRAFGLKTKKRSGFFFPRALKYEEEFY-NH2 [AMP #7] |  |  |  | 133 | 1.6 |  | > 100 |  |
| MWIKWKKPRKWGRRLKKKEKEELGDYIYLYCKVYRLFGFLPYFISKKTA-NH2 [AMP #17] |  | 6.3 | 6.3 | 134 | 6.3 |  | 12.5 |  |
